Results on five molecules are retold here after PubChem BioAssay AID743098 (Vanderbilt Specialized Chemistry Center, 2013).

Activity calls are given as the source filed them. How the calls were made is not given here.

For the test, the target named is Muscarinic acetylcholine receptor M1 (Homo sapiens) (UniProt P11229). As to the kind of experiment: M1 receptor allosteric modulation check, selectivity assay for M5 NAM discovery project, cell-based, human M1 (AID 743098). The conditions noted are these: CHO-K1 hM1 calcium flux, Fluo-4, ACh EC20; at 30 µM; hits give low values.
Muscarinic acetylcholine receptor M1 (Homo sapiens), sequence (P11229 whole entry, looked up): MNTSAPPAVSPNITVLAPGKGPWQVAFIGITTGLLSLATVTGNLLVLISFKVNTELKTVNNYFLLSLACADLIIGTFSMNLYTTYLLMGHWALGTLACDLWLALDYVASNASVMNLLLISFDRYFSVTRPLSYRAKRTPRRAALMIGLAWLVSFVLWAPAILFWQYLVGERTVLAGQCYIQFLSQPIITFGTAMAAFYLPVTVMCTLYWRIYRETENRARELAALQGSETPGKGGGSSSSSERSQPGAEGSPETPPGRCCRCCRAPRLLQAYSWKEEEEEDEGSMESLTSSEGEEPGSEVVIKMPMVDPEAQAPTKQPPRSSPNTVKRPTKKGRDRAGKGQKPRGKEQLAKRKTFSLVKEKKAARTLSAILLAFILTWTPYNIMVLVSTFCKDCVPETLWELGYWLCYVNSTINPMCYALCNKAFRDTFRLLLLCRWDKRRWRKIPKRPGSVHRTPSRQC
With `O=C(c1ccc(F)c(F)c1)N1CCN2C(=O)c3ccccc3C12c1ccc(Cl)cc1` (stereo not given), the response, % of max ACh is 80.5% (inactive).

Take `O=C(c1ccc(F)cc1)N1CCN2C(=O)c3ccccc3C12c1ccccc1` (stereo not given): the response, % of max ACh is 83.6% (inactive).

As to `O=C(c1cc(F)cc(F)c1)N1CCN2C(=O)c3ccccc3C12c1ccc(Cl)cc1` (stereo not given), the response, % of max ACh is 79.9% (inactive).

Take `O=C(c1ccc(F)c(F)c1)N1CCN2C(=O)c3ccccc3[C@@]12c1ccc(Cl)cc1`: the response, % of max ACh is 66.4% (inactive).

For the molecule `O=C(c1ccc(F)c(F)c1)N1CCN2C(=O)c3ccccc3C12c1ccccc1` (stereo not given), the response, % of max ACh was 87.2% (inactive).
